# Measured values from patent US20170253607A1, “LONG-ACTING HIV PROTEASE INHIBITOR” (Shionogi & Co., Ltd., priority 2014, published 2017).
# Legend:
# HIV-1 PR = HIV-1 PR (Human immunodeficiency virus type 1 group M subtype B, UniProt P04585); assay: HIV-protease inhibitory activity assay (FRET peptide substrate); format: biochemical; details: Test Example 1
# Outline: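 Fluorescence recovery at ex 485/em 535 nm reports cleavage of a quenched FRET peptide (2 μmol/L final) by 0.83 ng enzyme over 60 minutes at room temperature. Buffer was NaAc pH 4.8 with NaCl, EDTA, DTT and Tween 20. IC50 values came from four-parameter logistic regression of % inhibition.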
# [1] = Evaluation of total body clearance (CLtot), intravenous administration; format: in vivo, Sprague-Dawley (SD); details: rat (SD), intravenous administration 0.5-10 mg/kg; CLtot = dose/AUC
# Outline: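 Compounds given as a single tail-vein injection at 0.5-10 mg/kg (n=2-3), dose varying by compound. Plasma sampled at scheduled times and measured by LC/MS/MS; CLtot derived as dose divided by AUC from pharmacokinetic analysis.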
# [2] = Protein binding test (equilibrium dialysis, unbound ratio fu in serum); format: in vitro ADME; details: rat serum, equilibrium dialysis 24 hours, 37° C., 2 μg/mL
# Outline: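 Compound at 2 μg/mL in serum was dialysed against PBS for 24 hours at 37° C. Both sides were quantified by LC/MS/MS, and fu was taken as the PBS concentration divided by the serum concentration.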
Compound,IC50 (HIV-1 PR),rat_CLt [1],rat_fu [2]
COc1ccc(S(=O)(=O)N(CC(C)C)CC(O)C(Cc2ccc(Oc3ccc(C)c(-c4sc5c(c4C(=O)O)CC(C)(C)CC5)c3)cc2)NC(=O)OC2COC3(C)OCCC23)cc1 (stereo not drawn) [Compound I-134],2.04 nM,3.92 mL/min/kg,<0.1%
COc1ccc(S(=O)(=O)N(CC(C)C)C[C@@H](O)[C@H](Cc2ccc(CCc3sc4c(c3C(=O)O)CC(C)(C)CC4)cc2)NC(=O)O[C@H]2CO[C@@]3(C)OCC[C@@H]23)cc1 [Compound I-12],1.82 nM,2.9 mL/min/kg,<0.1%
COc1ccc(S(=O)(=O)N(CC(C)C)CC(O)C(Cc2ccc(OCc3ccccc3-c3sc4c(c3C(=O)O)CC(C)(C)CC4)cc2)NC(=O)OC2COC3OCCC23)cc1 (stereo not drawn) [Compound I-826],1.18 nM,0.823 mL/min/kg,<0.1%
COc1ccc(S(=O)(=O)N(CC(C)C)CC(O)C(Cc2ccc(CN(C)c3ccc(-c4sc5c(c4C(=O)O)CC(C)(C)CC5)cc3)cc2)NC(=O)OC2COC3(C)OCCC23)cc1 (stereo not drawn) [Compound I-265],5.07 nM,4.01 mL/min/kg,<0.1%
COc1ccc(S(=O)(=O)N(CC2CCCC2)CC(O)C(Cc2ccc(OCc3ccccc3-n3nc4c(c3C(=O)O)CC(C(C)(C)C)CC4)cc2)NC(=O)OC2COC3(C)OCCC23)cc1 (stereo not drawn) [Compound I-145],0.81 nM,1.29 mL/min/kg,<0.1%
COc1ccc(S(=O)(=O)N(CC2CCCC2)CC(O)C(Cc2ccc(OCc3ccccc3-n3nc4c(c3C(=O)O)CC3(CCCC3)CC4)cc2)NC(=O)OC2COC3(C)OCCC23)cc1 (stereo not drawn) [Compound I-146],0.92 nM,0.584 mL/min/kg,<0.1%
COc1ccc(S(=O)(=O)N(CC(C)C)CC(O)C(Cc2ccccc2)NC(=O)OC2COC3(COC(=O)NCc4sc5c(c4C(=O)O)CC(C)(C)CC5)OCCC23)cc1 (stereo not drawn) [Compound I-780],1.64 nM,2.23 mL/min/kg,<0.1%
COc1ccc(S(=O)(=O)N(CC2CCCC2)CC(O)C(Cc2ccc(OCc3ccccc3-n3nc4c(c3C(=O)O)CC(C(F)(F)F)CC4)cc2)NC(=O)OC2COC3(C)OCCC23)cc1 (stereo not drawn) [Compound I-140],1.42 nM,0.111 mL/min/kg,<0.1%
COc1ccc(S(=O)(=O)N(CC2CCCC2)CC(O)C(Cc2ccc(OCc3nc(C)sc3-c3sc4c(c3C(=O)O)CC(C)(C)CC4)cc2)NC(=O)OC2COC3(C)OCCC23)cc1 (stereo not drawn) [Compound I-248],2.26 nM,2.47 mL/min/kg,<0.1%
CC(C)CN(CC(O)C(Cc1ccc(CCc2sc3c(c2C(=O)O)CC(C)(C)CC3)cc1)NC(=O)OC1COC2(C)OCCC12)S(=O)(=O)c1ccc2c(c1)OCO2 (stereo not drawn) [Compound I-106],2.57 nM,3.49 mL/min/kg,<0.1%
COc1ccc(S(=O)(=O)N(CC(C)C)CC(O)C(Cc2ccc(CN3CCc4c(-c5sc6c(c5C(=O)O)CC(C)(C)CC6)cccc43)cc2)NC(=O)OC2COC3(C)OCCC23)cc1 (stereo not drawn) [Compound I-386],5.89 nM,4.96 mL/min/kg,<0.1%
COc1ccc(S(=O)(=O)N(CC(C)C)CC(O)C(Cc2ccc(OCc3cc(N(C)C)ccc3-c3sc4c(c3C(=O)O)CC(C)(C)CC4)cc2)NC(=O)OC2COC3(C)OCCC23)cc1 (stereo not drawn) [Compound I-206],3.38 nM,0.162 mL/min/kg,<0.1%
COc1ccc(S(=O)(=O)N(CC(C)C)CC(O)C(Cc2ccc(N(Cc3ccccc3)Cc3sc4c(c3C(=O)O)CC(C)(C)CC4)cc2)NC(=O)OC2COC3(C)OCCC23)cc1 (stereo not drawn) [Compound I-47],5.41 nM,3.51 mL/min/kg,<0.1%
COc1ccc(S(=O)(=O)N(CC(C)C)C[C@@H](O)[C@H](Cc2ccc(OCc3ccccc3-c3sc4c(c3C(=O)O)CCCC4=O)cc2)NC(=O)O[C@H]2CO[C@@]3(C)OCC[C@@H]23)cc1 [Compound I-2],1.05 nM,5.11 mL/min/kg,<0.1%
COc1ccc(S(=O)(=O)N(CC(C)C)CC(O)C(Cc2ccc(N(C)CC3=C(c4sc5c(c4C(=O)O)CC(C)(C)CC5)CCCC3)cc2)NC(=O)OC2COC3(C)OCCC23)cc1 (stereo not drawn) [Compound I-236],2.9 nM,0.763 mL/min/kg,<0.1%
COc1ccc(S(=O)(=O)N(CC(C)C)CC(O)C(Cc2ccc(Oc3ccc(-c4sc5c(c4C(=O)O)CC(C)(C)CC5)c(F)c3)cc2)NC(=O)OC2COC3OCCC23)cc1 (stereo not drawn) [Compound I-836],1.76 nM,4.31 mL/min/kg,<0.1%
Cc1cc(OCCN(CC(O)C(Cc2ccccc2)NC(=O)OC2COC3(C)OCCC23)S(=O)(=O)c2ccc3ncsc3c2)ccc1-c1sc2c(c1C(=O)O)CC(C)(C)CC2 (stereo not drawn) [Compound I-166],8.83 nM,0.194 mL/min/kg,<0.1%
COc1ccc(S(=O)(=O)N(CC(C)C)CC(O)C(Cc2ccc(NCC3=C(c4sc5c(c4C(=O)O)CC(C)(C)CC5)CCOC3)cc2)NC(=O)OC2COC3(C)OCCC23)cc1 (stereo not drawn) [Compound I-362],3.07 nM,4.62 mL/min/kg,<0.1%
COc1ccc(S(=O)(=O)N(CC(C)C)CC(O)C(Cc2ccc(OCc3ccccc3-c3oc4c(c3C(=O)O)CC(C)(C)CC4)cc2)NC(=O)OC2COC3(C)OCCC23)cc1 (stereo not drawn) [Compound I-49],2.5 nM,2.23 mL/min/kg,<0.1%
CC(C)CN(CC(O)C(Cc1ccc(CCc2sc3c(c2C(=O)O)CC(C)(C)CC3)cc1)NC(=O)OC1COC2(C)OCCC12)S(=O)(=O)c1ccc(N)cc1 (stereo not drawn) [Compound I-43],2 nM,3.19 mL/min/kg,<0.1%
COc1ccc(S(=O)(=O)N(CC(C)C)CC(O)C(Cc2ccc(N(C)Cc3ccccc3-n3nc4c(c3C(=O)O)CC(C)(C)CC4)cc2)NC(=O)OC2COC3(C)OCCC23)cc1 (stereo not drawn) [Compound I-349],2.33 nM,0.71 mL/min/kg,<0.1%
COc1ccc(S(=O)(=O)N(CC(C)C)C[C@@H](O)[C@H](Cc2ccc(NCc3ccccc3C(=O)Nc3sc4c(c3C(=O)O)CC(C)(C)CC4)cc2)NC(=O)O[C@H]2CO[C@@]3(C)OCC[C@@H]23)cc1 [Compound I-396],2.76 nM,0.0572 mL/min/kg,<0.1%
COc1ccc(S(=O)(=O)N(CC(C)C)CC(O)C(Cc2ccc(OCc3ccccc3-c3sc(Cl)c(C4CCCCC4)c3C(=O)O)cc2)NC(=O)OC2COC3OCCC23)cc1 (stereo not drawn) [Compound I-825],1.02 nM,5.22 mL/min/kg,<0.1%
COc1ccc(S(=O)(=O)N(CC(C)C)C[C@@H](O)[C@H](Cc2ccc(NC[C@H]3CCCC[C@H]3c3sc4c(c3C(=O)O)CC(C)(C)CC4)cc2)NC(=O)O[C@H]2CO[C@@]3(C)OCC[C@@H]23)cc1 [Compound I-247],2.25 nM,0.148 mL/min/kg,<0.1%
COc1ccc(S(=O)(=O)N(CC(C)C)CC(O)C(Cc2ccc(OCc3ccccc3-c3ccc(Oc4ccc(-c5c(O)c6ccc(Cl)cc6[nH]c5=O)cc4)cc3)cc2)NC(=O)OC2COC3OCCC23)cc1 (stereo not drawn) [Compound I-847],3.38 nM,6 mL/min/kg,<0.1%
